Entries after “also recorded” stand apart in the source; their conditions may differ.
Legend:
[1] = target: T1, (Mus musculus, UniProt Q923E4); assay: EX 527 effect on FGF6-induced UCP1 and PTGS2 expression in WT-1 preadipocytes; assay type: cell-based, murine; conditions: 50 uM pretreatment 3 hours, then EX and FGF6 18 hours
T1 construct: endogenous in cells; host or cells: WT-1 murine brown preadipocytes
T1 sequence (Q923E4 2-737 limits assumed): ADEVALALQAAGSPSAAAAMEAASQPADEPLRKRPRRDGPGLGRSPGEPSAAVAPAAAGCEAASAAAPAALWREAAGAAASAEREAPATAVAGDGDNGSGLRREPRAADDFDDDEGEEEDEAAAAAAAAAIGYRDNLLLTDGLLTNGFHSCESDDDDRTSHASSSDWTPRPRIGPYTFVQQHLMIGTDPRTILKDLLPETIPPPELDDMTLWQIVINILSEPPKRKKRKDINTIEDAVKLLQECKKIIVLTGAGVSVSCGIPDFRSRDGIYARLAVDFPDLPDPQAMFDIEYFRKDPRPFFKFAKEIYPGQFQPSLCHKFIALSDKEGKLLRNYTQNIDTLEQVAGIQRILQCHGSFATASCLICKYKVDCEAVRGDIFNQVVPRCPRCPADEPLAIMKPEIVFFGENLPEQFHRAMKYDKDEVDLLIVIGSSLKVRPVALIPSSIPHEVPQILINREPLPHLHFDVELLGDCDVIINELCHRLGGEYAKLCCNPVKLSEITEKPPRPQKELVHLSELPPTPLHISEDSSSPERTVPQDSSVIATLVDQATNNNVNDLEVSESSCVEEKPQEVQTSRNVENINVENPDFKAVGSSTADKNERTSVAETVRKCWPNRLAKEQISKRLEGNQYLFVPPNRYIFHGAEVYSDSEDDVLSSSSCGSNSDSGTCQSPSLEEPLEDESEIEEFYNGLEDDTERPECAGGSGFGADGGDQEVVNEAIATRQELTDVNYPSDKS
Description: (§1) To determine if the […] pathway is utilized by FGF6 to regulate UCP1 expression and mitochondrial function, WT-1 preadipocytes were pretreated with the […] selective inhibitor EX (EX 527; Santa Cruz Biotechnology) at concentrations of 0 uM or 50 uM in growth media (DMEM+10% FBS) for 3 hours. Following EX treatment, the cells were treated with EX and FGF6 for 18 hours.

[2] = target: T2, Sirt2 (Mus musculus, UniProt Q923E4); assay: as above; assay type: cell-based, murine; conditions: 50 uM pretreatment 3 hours, then EX and FGF6 18 hours
T2 construct: endogenous in cells; host or cells: WT-1 murine brown preadipocytes
T2 sequence (Q923E4 2-737 limits assumed): T1 sequence (Q923E4 2-737 limits assumed)
Description: as §1

With NC(=O)C1CCCc2c1[nH]c1ccc(Cl)cc21 (centres unmarked) [EX] the “FGF6-induced PTGS2 expression level” value [1] was “reduced; also recorded: suppression” and the “FGF6-induced UCP1 mRNA expression” value [2] was “inhibited UCP1 expression; also recorded: suppression”.
